# Read-outs that look alike come from different tables or passages of the source. Bridges are numbered along the chain shown (N, C = ends). [ ]: non-standard residue; d: D form. Trp(5-F) = N[C@@H](Cc1c[nH]c2ccc(F)cc12)C(=O)O; Trp(6-F) = N[C@@H](Cc1c[nH]c2cc(F)ccc12)C(=O)O
# Experiments:
# [1] = test system: activation of the complement system by immunocomplexes (C3b/iC3b deposition); conditions: cited from earlier work; for Activity over compstatin: Table 1A, previously described analogs (WO2004/026328)
# [2] = target: C3 (Homo sapiens, UniProt P01024); assay: Isothermal titration calorimetry of the interaction of C3 with compstatin analogs; assay type: binding
# Protocol: Isothermal titration calorimetry experiments were performed using the Microcal VP-ITC calorimeter (Microcal Inc, Northampton, Mass.). Protein concentrations of 3.5-5 μM and peptide concentrations of 80-200 μM were used for these experiments. All titrations were performed in PBS (10 mM phosphate buffer with 150 mM NaCl, pH 7.4). In each experiment, the target protein, C3, was loaded into the cell, and peptide was loaded into the syringe. All experiments were performed at 25° C. and for each experiment, 2-μl peptide injections were made into the cell containing the protein. In each experiment, the raw isotherms were corrected for the heats of dilution by subtracting the isotherms representing peptide injections into the buffer. The resulting isotherms were fit to various models within the Origin 7.0 software, and the model that achieved the lowest chi square value was deemed to be appropriate for the respective dataset. Binding affinity and entropy values were plotted against log P values.
# [3] = test system: activation of the complement system by immunocomplexes (C3b/iC3b deposition); assay: Complement inhibition assay (ELISA): inhibition of C3 fixation to ovalbumin-anti-ovalbumin complexes in normal human plasma; assay type: biochemical; conditions: for complement inhibitory activity (in words): at the concentrations tested; for amount of conjugate required to achieve the same inhibition as Ac-V4(1-methyl-W)/H9A: relative to Ac-V4(1-methyl-W)/H9A (SEQ ID NO:23); for Relative activity: Table 2, relative to the activity of compstatin (SEQ ID NO: 1); for Activity over compstatin: Table 1B, exemplary analogs described herein
# Protocol: Complement activation inhibition was assessed by measuring the inhibition of C3 fixation to ovalbumin-anti-ovalbumin complexes in normal human plasma. Microtiter wells were coated with 50 μl of ovalbumin (10 mg/ml) for 2 hr at 25° C. (overnight at 4° C.). The wells were saturated with 200 μl of 10 mg/ml BSA for 1 hr at 25° C. and then a rabbit anti-ovalbumin antibody was added to form an immunocomplex by which complement can be activated. Thirty microliters of peptides at various concentrations were added directly to each well followed by 30 μl of a 1:80 dilution of human plasma. After 30 min incubation, bound C3b/iC3b was detected using a goat anti-human C3 HRP-conjugated antibody. Color was developed by adding ABTS peroxidase substrate and optical density measured at 405 nm.
# The % inhibition was plotted against the peptide concentration, and the resulting data set was fit to the logistic dose-response function using Origin 7.0 software. […] IC50 values were obtained from the fitted parameters that achieved the lowest chi-square value.
# [4] = test system: alternative pathway-mediated erythrocyte lysis; conditions: cited from earlier work
# [5] = relative to Ac-V4W/H9A (SEQ ID NO:5)
# Sequence of C3 (P01024 23-1663): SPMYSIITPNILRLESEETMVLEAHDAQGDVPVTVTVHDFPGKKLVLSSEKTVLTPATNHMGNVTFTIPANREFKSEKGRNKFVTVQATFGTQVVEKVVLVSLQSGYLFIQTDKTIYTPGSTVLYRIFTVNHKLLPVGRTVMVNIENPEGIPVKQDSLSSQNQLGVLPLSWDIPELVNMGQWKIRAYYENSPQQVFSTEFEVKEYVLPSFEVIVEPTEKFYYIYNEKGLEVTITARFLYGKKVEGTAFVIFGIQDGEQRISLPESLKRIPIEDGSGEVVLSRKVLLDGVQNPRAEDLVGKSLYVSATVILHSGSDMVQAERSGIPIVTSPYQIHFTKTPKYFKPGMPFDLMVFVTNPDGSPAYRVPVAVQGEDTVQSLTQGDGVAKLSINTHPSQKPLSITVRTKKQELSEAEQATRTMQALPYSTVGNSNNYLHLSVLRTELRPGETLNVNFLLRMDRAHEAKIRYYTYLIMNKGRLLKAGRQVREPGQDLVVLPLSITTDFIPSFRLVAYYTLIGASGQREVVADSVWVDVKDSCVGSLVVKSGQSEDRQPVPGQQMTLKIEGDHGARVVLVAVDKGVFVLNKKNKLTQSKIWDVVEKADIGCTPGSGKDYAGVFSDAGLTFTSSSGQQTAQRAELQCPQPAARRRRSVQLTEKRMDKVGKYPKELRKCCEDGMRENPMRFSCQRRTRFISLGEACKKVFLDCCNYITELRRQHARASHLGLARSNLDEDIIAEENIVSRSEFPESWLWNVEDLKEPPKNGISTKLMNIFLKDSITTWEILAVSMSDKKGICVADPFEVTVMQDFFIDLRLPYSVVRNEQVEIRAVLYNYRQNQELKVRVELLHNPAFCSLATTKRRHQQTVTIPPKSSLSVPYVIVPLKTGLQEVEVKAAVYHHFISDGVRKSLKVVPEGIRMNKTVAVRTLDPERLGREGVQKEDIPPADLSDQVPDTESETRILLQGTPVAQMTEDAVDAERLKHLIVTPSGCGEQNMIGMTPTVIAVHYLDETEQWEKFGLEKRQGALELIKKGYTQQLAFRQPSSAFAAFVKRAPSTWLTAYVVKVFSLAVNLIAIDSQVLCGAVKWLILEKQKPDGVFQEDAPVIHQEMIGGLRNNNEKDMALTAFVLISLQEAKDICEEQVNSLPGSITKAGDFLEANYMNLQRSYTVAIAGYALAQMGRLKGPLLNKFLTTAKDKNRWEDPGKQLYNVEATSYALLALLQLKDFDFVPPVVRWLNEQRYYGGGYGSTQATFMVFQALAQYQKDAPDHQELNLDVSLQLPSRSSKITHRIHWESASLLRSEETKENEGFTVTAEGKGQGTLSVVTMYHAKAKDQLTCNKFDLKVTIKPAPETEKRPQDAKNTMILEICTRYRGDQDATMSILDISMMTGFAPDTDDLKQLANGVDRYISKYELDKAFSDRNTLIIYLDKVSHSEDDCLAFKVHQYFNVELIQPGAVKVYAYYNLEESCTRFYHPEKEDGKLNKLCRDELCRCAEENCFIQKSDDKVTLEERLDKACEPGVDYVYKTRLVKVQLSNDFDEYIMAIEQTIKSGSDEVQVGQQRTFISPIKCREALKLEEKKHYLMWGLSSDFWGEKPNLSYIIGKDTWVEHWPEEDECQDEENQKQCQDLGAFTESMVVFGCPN
compound,measurement,setting,value
CC[C@H](C)[C@H](NC(C)=O)C(=O)N[C@H]1CSSC[C@@H](C(=O)N[C@H](C(N)=O)[C@@H](C)O)NC(=O)[C@H](CCCNC(=N)N)NC(=O)[C@H](Cc2c[nH]cn2)NC(=O)[C@H](C)NC(=O)CNC(=O)[C@H](Cc2c[nH]c3ccccc23)NC(=O)[C@H](CC(=O)O)NC(=O)[C@H](CCC(N)=O)NC(=O)[C@H](Cc2ccc3ccccc3c2)NC(=O)[C@H](C(C)C)NC1=O [Ac-V4(2-Nal)/H9A],Activity over compstatin,[1],99 × more
same,ΔG,"[2]; Table 6, ITC, 25° C.",-9.5 kcal/mol
same,−TΔS,"[2]; Table 6, ITC, 25° C.",4.8 kcal/mol
same,ΔΔG,"[2]; Table 6, relative to Wild-type",-0.1 kcal/mol
same,ΔΔH,"[2]; Table 6, relative to Wild-type",3.87 kcal/mol
same,−TΔΔS,"[2]; Table 6, relative to Wild-type",-3.99 kcal/mol
same,IC50,[3]; Table 5,545 nM
CC[C@H](C)[C@H](N)C(=O)N[C@H]1CSSC[C@@H](C(=O)N[C@H](C(N)=O)[C@@H](C)O)NC(=O)[C@H](CCCN=C(N)N)NC(=O)[C@H](Cc2cnc[nH]2)NC(=O)[C@H](Cc2cnc[nH]2)NC(=O)CNC(=O)[C@H](Cc2c[nH]c3ccccc23)NC(=O)[C@H](CC(=O)O)NC(=O)[C@H](CCC(N)=O)NC(=O)[C@H](C(C)C)NC(=O)[C@H](C(C)C)NC1=O [Compstatin],IC50,[4],12000 nM
Ac-ICV(1-Nal)QDWGAHRCT-COOH [Ac V4(1-Nal)/H9A −OH],Activity over compstatin,[1],30 × more
Ac-ICV(1MeW)QDWGAHRCTRLIEDICLPRWGCLWEDD-NH2 [Albumin-binding peptide-compstatin],complement inhibitory activity (in words),[3],active in inhibiting complement activation
same,amount of conjugate required to achieve the same inhibition as Ac-V4(1-methyl-W)/H9A,[3],seven-fold more conjugate was required
Ac-ICV(2-Igl)QDWGAHRCT-CONH2 [Ac-V4Igl/H9A],Activity over compstatin,[1],39 × more
Ac-ICV(2-Igl)QDWGAHRCT-COOH [Ac-V4Igl/H9A −OH],Activity over compstatin,[1],37 × more
Ac-ICV(2-Nal)QDWGAHRCT-COOH [Ac V4(2-Nal)/H9A −OH],Activity over compstatin,[1],39 × more
Ac-ICV(Bpa)QDWGAHRCT-COOH [Ac-V4(Bpa)/H9A −OH],Activity over compstatin,[1],49 × more
same,fold greater activity than compstatin,[1]; analogs disclosed in WO2004/026328,49 fold
Ac-ICVDhtQDWGAHRCT-COOH [Ac-V4Dht/H9A −OH],Activity over compstatin,[1],5 × more
Ac-ICVVQDWGHHRCT-CONH2 [Ac-compstatin],Activity over compstatin,[1],3 × more
Ac-ICVYQDWGAHRCT-CONH2 (Ac-ICVYQDWGAHRCT-NH2; disulfide 2-12 (inferred)) [Ac-V4Y/H9A],Activity over compstatin,[1],19 × more
Ac-V4(1-methyl-W)/H9A-K-PEG 5000: Ac-V4(1-methyl-W)/H9A with C-terminal lysine whose side chain is linked to PEG 5000 (ICVWQDWGAHRCTK; N-acetyl; 1-methyl-Trp at 4; C-terminal Lys-PEG5000),complement inhibitory activity (in words),[3],active in inhibiting complement activation
same,amount of conjugate required to achieve the same inhibition as Ac-V4(1-methyl-W)/H9A,[3],seven-fold more conjugate was required
GICVWQDWGAHRCTN [G(−1)/V4(5-OH-W)/W7(5-OH-W)/H9A/N14],IC50,"[3]; Table 2, expressed peptides",33000 nM
same,Relative activity,[3],1.6
same,fold loss in activity / times less active compared to Ac-V4W/H9A,[3]; [5],27.5 fold
"GICVWQDWGAHRCTN [G(−1)/V4W/H9A/N14, bacterially expressed compstatin analog]",Activity over compstatin,[3],45 × more
same,IC50,"[3]; Table 2, expressed peptides",1200 nM
same,Relative activity,[3],45
"H-GICV(5f-l-W)QD(5f-l-W)GAHRCTN-COOH (H-GICV[Trp(5-F)]QD[Trp(5-F)]GAHRCTN-OH; disulfide 3-13 (inferred)) [G(−1)/V4(5fW)/W7(5fW)/H9A/N14, bacterially expressed compstatin analog]",Activity over compstatin,[3],112 × more
same,IC50,"[3]; Table 2, expressed peptides",480 nM
same,Relative activity,[3],112
same,fold higher activity than Ac-V4W/H9A,[3]; [5],2.5 fold
"H-GICV(6f-l-W)QD(6f-l-W)GAHRCTN-COOH (H-GICV[Trp(6-F)]QD[Trp(6-F)]GAHRCTN-OH; disulfide 3-13 (inferred)) [G(−1)/V4(6fW)/W7(6fW)/H9A/N14, bacterially expressed compstatin analog]",Activity over compstatin,[3],126 × more
same,IC50,"[3]; Table 2, expressed peptides",430 nM
same,Relative activity,[3],126
same,fold higher activity than Ac-V4W/H9A,[3]; [5],2.8 fold
